Test systems include A549; COLO 205; HOP-62; HT-29; IGROV-1; KM12; LOX IMVI; MDA-N; NCI-H522; NCI/ADR-RES; OVCAR-5; OVCAR-8; SK-MEL-28; SK-MEL-2; SW-620; T47D; U-251; UACC-62; HCT-116; HL-60.
Common to all, as to assay: growth of human tumour cells (NCI), 48 h

The structures appear in SMILES notation.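 Assay format: 96-well plates, 48-hour exposure. The concentration for 50% growth inhibition is given as GI50.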 Calls of active or inactive are those of the source. Cut-off read from the data, not from the text of the source: active = GI50 up to about 1.1 µM and inactive = higher. Where only a bound is given, the exact number is not on record here.

Turning to `COP(C)(=O)C1=CCN(C(=O)OCC[Si](C)(C)C)CC1` (configuration not stated), the GI50 with A549, in the assay on COLO 205, in the assay with HOP-62, in the assay with HT-29, in the assay with IGROV-1 and in the assay with KM12 was > 100 µM (inactive) each time. For the same compound, the GI50 with LOX IMVI, in the assay with MDA-N, in the assay with NCI-H522, with NCI/ADR-RES, in the assay with OVCAR-5 and with OVCAR-8 was > 100 µM (inactive) in each case. Also, the GI50 in the assay on SK-MEL-28, in the assay on SK-MEL-2, in the assay on SW-620, with T47D, in the assay on U-251 and in the assay with UACC-62 was > 100 µM (inactive) in each case.
`CN(C)CCCNc1cc(O)c2c(c1O)C(=O)c1ccccc1C2=O`: the GI50 in the assay on A549 was 10.9 µM (inactive); in the assay on COLO 205, 11.5 µM (inactive); in the assay with HCT-116, 4.9 µM (inactive); with HOP-62 it was 11.1 µM (inactive); in the assay on HT-29, 11 µM (inactive); with IGROV-1, 10.6 µM (inactive). Besides, the GI50 in the assay on KM12 was 9.4 µM (inactive); with LOX IMVI, 9.53 µM (inactive); with MDA-N it was 14.3 µM (inactive); in the assay with NCI-H522 it was 21.8 µM (inactive); with NCI/ADR-RES, 3.4 µM (inactive); in the assay on OVCAR-5 it was 18.9 µM (inactive). For the same compound, the GI50 in the assay on OVCAR-8 is 12.6 µM (inactive); in the assay on SK-MEL-28, 16.4 µM (inactive); in the assay on SK-MEL-2, 19.8 µM (inactive); with SW-620 it was 8.65 µM (inactive); in the assay with T47D, 19 µM (inactive); in the assay on U-251, 13.2 µM (inactive). Moreover, the GI50 with UACC-62 is 18.4 µM (inactive).
As to `O=c1c2c(c1=O)C1(SCCCS1)c1cc(Cl)ccc1O2`, the GI50 in the assay on A549, in the assay with COLO 205, in the assay on HCT-116, in the assay with HL-60, with HOP-62 and in the assay on HT-29 was > 100 µM (inactive) throughout. Further, the GI50 with IGROV-1, in the assay with KM12, in the assay on LOX IMVI, with MDA-N, with NCI-H522 and in the assay on NCI/ADR-RES was > 100 µM (inactive) in each case. In addition, the GI50 with OVCAR-5, in the assay with OVCAR-8, in the assay on SK-MEL-28, with SK-MEL-2, in the assay on SW-620 and in the assay on U-251 was > 100 µM (inactive) each time. Moreover, the GI50 in the assay with UACC-62 was > 100 µM (inactive).
On to `CON(C)C(=O)C(C)NC(=O)OC(C)(C)C` (configuration not stated), for which the GI50 in the assay with A549, with COLO 205, with HCT-116, in the assay with HL-60, with HOP-62 and in the assay with HT-29 was > 100 µM (inactive) each time. Also, the GI50 in the assay on IGROV-1, in the assay on KM12, with MDA-N, in the assay with NCI/ADR-RES, in the assay with OVCAR-5 and in the assay on OVCAR-8 was > 100 µM (inactive) throughout. In addition, the GI50 in the assay on SK-MEL-28, in the assay on SW-620, in the assay with T47D, in the assay on U-251 and in the assay with UACC-62 was > 100 µM (inactive) throughout.
Take `Cc1csc2nc3[nH]ncc3c(=O)n12`: the GI50 in the assay with A549, in the assay on COLO 205, with HCT-116, in the assay with HOP-62, in the assay with HT-29 and in the assay with IGROV-1 was > 100 µM (inactive) throughout. In addition, the GI50 is > 100 µM (inactive) in the assay on KM12; > 100 µM (inactive) in the assay with LOX IMVI; > 100 µM (inactive) in the assay on MDA-N; > 100 µM (inactive) with NCI-H522; 66.8 µM (inactive) with NCI/ADR-RES; > 100 µM (inactive) in the assay on OVCAR-5. Moreover, the GI50 in the assay with OVCAR-8, in the assay with SK-MEL-28, with SK-MEL-2, in the assay on SW-620, in the assay on T47D and in the assay with U-251 was > 100 µM (inactive) throughout. Besides, the GI50 in the assay on UACC-62 was > 100 µM (inactive).
Consider `CON(C)C(=O)[C@H]1C[C@@]1(C)CO`, for which the GI50 in the assay with A549, with COLO 205, with HCT-116, with HOP-62, in the assay on HT-29 and with IGROV-1 was > 100 µM (inactive) each time. Further, the GI50 in the assay with KM12, with MDA-N, in the assay on NCI/ADR-RES, in the assay on OVCAR-5, in the assay on OVCAR-8 and with SK-MEL-28 was > 100 µM (inactive) each time. Besides, the GI50 in the assay on SK-MEL-2, in the assay on SW-620, in the assay on T47D, with U-251 and in the assay on UACC-62 was > 100 µM (inactive) throughout.
As to `N#Cc1nc(-c2ccccn2)c(-c2ccccn2)nc1C#N`, the GI50 with A549 is 1.14 µM (inactive); with COLO 205 it was 1.97 µM (inactive); in the assay with HCT-116, 0.624 µM (active); with HOP-62 it was 1.74 µM (inactive); in the assay with HT-29 it was 2.82 µM (inactive); in the assay with IGROV-1, 1.43 µM (inactive). Moreover, the GI50 with KM12 was 2.52 µM (inactive); in the assay with LOX IMVI it was 1.03 µM (active); with MDA-N, 2.61 µM (inactive); in the assay on NCI-H522, 1.64 µM (inactive); in the assay with NCI/ADR-RES it was 1.8 µM (inactive); with OVCAR-5, 3.32 µM (inactive). Besides, the GI50 with OVCAR-8 is 2.64 µM (inactive); in the assay on SK-MEL-28, 3.96 µM (inactive); with SK-MEL-2, 3.59 µM (inactive); in the assay with SW-620 it was 3.08 µM (inactive); in the assay on T47D, 1.69 µM (inactive); in the assay with U-251 it was 2.32 µM (inactive). Moreover, in the assay with UACC-62, the GI50 is 0.47 µM (active).
As for `O=C(O)Cc1ccc2c(c1)/C(=C1/Nc3ccccc3C1=O)C(=O)N2`, the GI50 was 80.9 µM (inactive) with A549; 35.1 µM (inactive) with COLO 205; 24 µM (inactive) in the assay with HCT-116; 51.8 µM (inactive) with HOP-62; 38.8 µM (inactive) with HT-29; 0.355 µM (active) in the assay with IGROV-1. Besides, the GI50 in the assay on KM12 is 29.2 µM (inactive); with LOX IMVI, 20 µM (inactive); in the assay on MDA-N it was 38.4 µM (inactive); with NCI-H522, 35 µM (inactive); in the assay on NCI/ADR-RES, > 100 µM (inactive); in the assay with OVCAR-5, > 100 µM (inactive). In addition, the GI50 in the assay with OVCAR-8 was 32 µM (inactive); with SK-MEL-28, 54.3 µM (inactive); in the assay with SK-MEL-2 it was 40.9 µM (inactive); with SW-620, 46.2 µM (inactive); with T47D, 7.71 µM (inactive); in the assay on U-251, 39.6 µM (inactive). Moreover, the GI50 with UACC-62 is 24.4 µM (inactive).

The values are drawn from ChEMBL document CHEMBL1201862, “PubChem BioAssay data set” (2004).
